From patent US11731977B2, “SGC stimulators” (Cyclerion Therapeutics, Inc., priority 2016, dated 2023)

Molecular target: T1, sGC enzyme (Homo sapiens, UniProt Q02108+Q02153)
T1 construct: sGC enzyme activity values in HEK cells, determined by the GloSensor assay; host or cells: HEK293 cells stably expressing GloSensor 40F cGMP biosensor
T1 sequence (Q02153 1-619): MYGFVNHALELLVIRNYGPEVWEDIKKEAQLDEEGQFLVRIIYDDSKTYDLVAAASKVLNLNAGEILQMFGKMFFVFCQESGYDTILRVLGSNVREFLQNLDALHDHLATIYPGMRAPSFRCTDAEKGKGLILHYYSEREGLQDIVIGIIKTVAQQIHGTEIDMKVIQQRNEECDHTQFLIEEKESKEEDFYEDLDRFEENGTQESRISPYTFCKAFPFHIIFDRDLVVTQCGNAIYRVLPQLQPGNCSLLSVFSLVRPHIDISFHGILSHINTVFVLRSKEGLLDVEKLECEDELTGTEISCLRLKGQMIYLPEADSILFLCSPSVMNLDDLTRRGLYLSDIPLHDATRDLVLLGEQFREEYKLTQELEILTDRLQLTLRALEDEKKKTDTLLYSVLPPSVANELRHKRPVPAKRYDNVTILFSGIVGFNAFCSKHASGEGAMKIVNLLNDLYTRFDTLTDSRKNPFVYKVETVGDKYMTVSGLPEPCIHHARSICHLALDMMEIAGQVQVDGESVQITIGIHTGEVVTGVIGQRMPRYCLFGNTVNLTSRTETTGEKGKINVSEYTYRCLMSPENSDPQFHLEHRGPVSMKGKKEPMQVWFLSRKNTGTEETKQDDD
T1 sequence (Q02108 1-690): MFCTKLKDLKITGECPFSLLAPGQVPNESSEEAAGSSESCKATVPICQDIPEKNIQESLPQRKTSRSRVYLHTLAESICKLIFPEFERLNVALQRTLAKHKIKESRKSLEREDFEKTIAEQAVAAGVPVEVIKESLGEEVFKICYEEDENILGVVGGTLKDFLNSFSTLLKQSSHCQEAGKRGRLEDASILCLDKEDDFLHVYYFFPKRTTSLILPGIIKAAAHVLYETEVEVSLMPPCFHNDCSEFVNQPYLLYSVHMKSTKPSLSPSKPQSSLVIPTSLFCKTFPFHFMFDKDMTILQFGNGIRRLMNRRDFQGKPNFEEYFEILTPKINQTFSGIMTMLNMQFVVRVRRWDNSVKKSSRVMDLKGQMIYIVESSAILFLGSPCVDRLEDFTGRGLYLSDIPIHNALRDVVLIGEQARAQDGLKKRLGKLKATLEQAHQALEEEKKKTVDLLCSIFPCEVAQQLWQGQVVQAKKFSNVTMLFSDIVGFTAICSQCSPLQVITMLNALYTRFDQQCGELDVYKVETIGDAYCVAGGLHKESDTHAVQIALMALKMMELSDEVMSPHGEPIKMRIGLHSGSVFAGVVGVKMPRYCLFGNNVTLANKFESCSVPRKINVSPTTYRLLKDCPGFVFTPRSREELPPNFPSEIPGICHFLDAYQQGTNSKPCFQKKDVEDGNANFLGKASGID
Test: cGMP GloSensor cell-based assay, 384-well format (Example 2a)
Conditions: HEK293 GloSensor 40F cGMP cells; 10 μM DETA-NONOate; 50% of high control (30 μM Compound Y); read-out: Abs EC50
Method in brief: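 HEK293 cells expressing GloSensor 40F cGMP biosensor, pre-equilibrated with GloSensor substrate 90 min at 25 °C, then given compound (final 0.029–30000 nM) plus 10 μM DETA-NONOate; luminescence read after 55 min at room temperature. Normalized to 1% DMSO (low) and 30 μM Compound Y (high); Abs EC50 from 4-parameter fit, n=2, geometric mean.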

Row | EC50 | Structure (SMILES)
1 | ≤ 0.1 µM | Fc1ccccc1Cc1nc(-c2nc(C(F)(F)F)n[nH]2)cn2ccnc12 [Compound I-1, 8-(2-fluorobenzyl)-6-(3-(trifluoromethyl)-1H-1,2,4-triazol-5-yl)imidazo[1,2-a]pyrazine]
2 | ≤ 0.1 µM | Fc1cccc(Cc2nc(-c3nc(C(F)(F)F)n[nH]3)cn3ccnc23)c1 [Compound I-2, 8-(3-Fluorobenzyl)-6-(3-(trifluoromethyl)-1H-1,2,4-triazol-5-yl)imidazo[1,2-a]pyrazine]
3 | ≤ 0.1 µM | Fc1cccc(Cc2nc(-c3nc(C(F)(F)F)n[nH]3)cn3ccnc23)c1F [Compound I-10, 8-(2,3-Difluorobenzyl)-6-(3-(trifluoromethyl)-1H-1,2,4-triazol-5-yl)imidazo[1,2-a]pyrazine]
4 | 0.1 to 1 µM | Fc1cccc(Cc2nc(-c3nc(C(F)F)n[nH]3)cn3ccnc23)c1F [Compound I-11, 8-(2,3-Difluorobenzyl)-6-(3-(difluoromethyl)-1H-1,2,4-triazol-5-yl)imidazo[1,2-a]pyrazine]

Further lines, the compound ahead of its results:

Row | Structure (SMILES) | EC50
5 | Fc1cccc(Cc2nc(-c3nc(C(F)F)n[nH]3)cn3ccnc23)c1 [Compound I-3, 6-(3-(Difluoromethyl)-1H-1,2,4-triazol-5-yl)-8-(3-fluorobenzyl)imidazo[1,2-a]pyrazine] | 0.1 to 1 µM
6 | Fc1ccccc1Cc1nc(-c2nc(C(F)F)n[nH]2)cn2ccnc12 [Compound I-14, 8-(2-Fluorobenzyl)-6-(3-(difluoromethyl)-1H-1,2,4-triazol-5-yl)imidazo[1,2-a]pyrazine] | ≤ 0.1 µM
7 | Fc1ccccc1Cc1nc(-c2nc(C(F)(F)F)n[nH]2)cn2ncnc12 [Compound I-16, 8-(2-Fluorobenzyl)-6-(3-(trifluoromethyl)-1H-1,2,4-triazol-5-yl)-[1,2,4]triazolo[1,5-a]pyrazine] | ≤ 0.1 µM
